Key:
[1] = test system: CD4, hMR, CCR1, D6 on U87MG; test: HIV receptor and chemokine co-receptor expression on U87MG by flow cytometry; assay type: cell-based, human
Experimental: (§1) U87MG (A) and HFA (B) were left untreated or treated GM-CSF (50 ng/ml) or IFNγ (100 ng/ml) for 24 h. Expression of receptors on the x-axis was measured by flow cytometry. Isotype refers to mouse IgG. Data is representative of three experiments. Error bars represent standard deviation of the mean. (C). IFNγ up-regulates D6 on U87MG cells. U87MG were left untreated or treated with IFNγ. After 3 days, the cells were immunostained with anti-D6 or isotype antibodies. The first histogram (peak) represents isotype control; the dark shaded histogram represents untreated cultures, and the third histogram (peak) represents IFNγ-treated cultures. Data is typical of quadruplet experiments.
(§2) Because IFNγ was a potent cytokine in inducing HIV infection of astrocytes, it was determined whether IFNγ treatment modulated key HIV receptors CD4, human mannose receptor D6 and co-receptors (CCR1, CCR2, CCR3, CXCR4, and CCR5) for HIV infection. U87MG is human mannose receptor (hMR) […] (FIG. 5). However, hMR was not detected on HFA, which may be regulated by the differentiation stage of the HFA (FIG. 5 (B)). CD4 and hMR expression in both U87MG and HFA was not augmented by IFNγ or GM-CSF (FIG. 5(A)-(B)). […] HFA were positive for CXCR4 (12%), but its expression was not augmented by GM-CSF or IFNγ treatment (FIG. 5B). IFNγ was reported to enhance CXCR4 and CCR5 expression on simian adult astrocytes, which is in contrast to data on human fetal astrocytes highlighting a discrepancy between simian adult and human fetal astrocytes. […] Infection of U87MG and HFA with a T-tropic isolate (IIIB), while it was productive, was not enhanced by cytokine pre-treatment. This may be a consequence of the laboratory adapted HIV IIIB, therefore primary T-tropic or dual tropic strains may still be responsive to IFNγ pre-treatment of astrocytes. Recently, the CC chemokine receptor D6 was identified as a functional co-receptor for primary HIV infection of astrocytes.

CD4, hMR, CXCR4 on HFA = test: HIV receptor and chemokine co-receptor expression on HFA by flow cytometry; assay type: cell-based, human
Experimental: as §1, §2

HIV-Bal in U87MG = test: Cytokine pre-stimulation and HIV-Bal replication in U87MG, p24 ELISA; assay type: cell-based; details: 24 h pre-stimulation, 0-1000 ng/ml, p24 day 7
Experimental: U87MG (A) and HFA (B) were pre-stimulated with increasing doses of either GM-CSF or IFNγ for 24 h followed by HIV-BAL infection for 24 hours. HIV replication was determined by measuring HIV p24 levels by ELISA seven days post-infection. The dotted line represents basal level of HIV infection of astrocytes without cytokine pre-treatment. Data is representative of three experiments performed in quadruplicate. Error bars represent standard deviations of the mean. Asterisks denote significant values (p<0.05) in comparison to untreated cultures as evaluated by analysis of variance.
To determine if pre-stimulation of astrocytes primes astrocytes, for productive HIV infection, U87MG and HFA were pre-treated for 24 hours with TNFγ, GM-CSF, or IFNγ at various concentrations (0-1000 ng/ml) then infected with HIV-Bal at 10 ng of HIV p24/1×10^6 cells for 24 hours. The cells were then washed extensively or trypsinized to remove bound virus and propagated in the presence of the respective cytokine concentration. HIV infection was monitored by p24 ELISA seven days post-infection. […]
IFN-γ Treatment and HIV Infection. […] HIV infection was monitored at day 7 postinfection by measuring p24 levels by conventional enzyme-linked immunosorbent assay (ELISA) (National Cancer Institute, Frederick, Md.).

IFNγ receptor on HFA = test: Cytokine receptor expression on HFA by flow cytometry; assay type: cell-based, human; details: untreated 6%
Experimental: U87MG (A) or HFA (B) were left untreated or treated with GM-CSF (50 ng/ml), IFNγ100 ng/ml) or TNFγ100 ng/ml). […] Percent expression of GM-CSF receptor (R), IFNγR, and TNFγR was measured 24 hours post-stimulation by flow cytometry. Data is representative of three experiments. Error bars represent standard deviations of the mean.
Prior to evaluating if GM-CSF, IFNγ, and TNFγ can augment HIV replication of astrocytes, a question was whether U87MG and HFA express the respective cytokine receptors. U87MG and HFA were treated with or without the respective cytokine for 24 hours and cytokine receptor expression was evaluated by flow cytometry. Approximately 35% of U87MG expressed the IFNγ receptor and a low level of GM-CSF and TNFγ receptors (<8%; FIG. 3A). […] Untreated HFA expressed only low levels of IFNγ receptor (6%) and this expression was abrogated with IFNγ treatment. GM-CSF and TNFγ receptors were not expressed on HFA.

For “IFNγ: cytokine secreted by lymphocytes, activated microglia and astrocytes; used to prime astrocytes”, the “CD4 and hMR expression” value [1] was “not augmented”, the “Up-regulation of CCR1 expression” value ([1]; 24 h treatment) was 4 fold and the “Up-regulation of D6 expression” value ([1]; 3 days) was 6 fold. For the same substance, the “CD4 and hMR expression” value (CD4, hMR, CXCR4 on HFA) was “not augmented”, the CXCR4 expression (CD4, hMR, CXCR4 on HFA; untreated 12%) was “not augmented” and the “Maximal induction of HIV replication vs untreated/infected cultures” value (HIV-Bal in U87MG) was 10 fold. For the same substance, the “IFNγ receptor expression after treatment” value (IFNγ receptor on HFA) was “abrogated”.
